The values that follow come from patent US20230284660A1, “Siamenoside I Sweetened Compositions and Uses of the Same” (The Coca-Cola Company, priority 2017, published 2023).

Assay type in all cases: in vivo, human
The nature of experiment [1]: Mock beverage tasting of sweeteners in citric acid buffer and phosphoric acid buffer. Conditions: for Dosage for ~7 Brix SE: estimated concentrations, benchmark 500 ppm mogroside V. The source says: Siamenoside I was separately tasted in citric acid buffer (pH 3.2) and phosphoric acid buffer (pH 2.6) at 500 ppm and compared against an equivalent solution of RebM90 (RebM with at least 90% purity) and various other sweeteners.
Accordingly, the dosage of all other sweeteners was adjusted benchmark 500 ppm mogroside V. Estimated concentrations are presented below.

Experiment [2] is described as follows: Blind bench evaluation of sweeteners in six beverage matrices, RebM90 as control. Conditions: Lemon Lime Sparkling (70% sugar reduction). The protocol: A blind evaluation of the above-named sweeteners was conducted in six (6) beverage (liquid) matrices, including both sparkling and still matrixes. Of the six beverage matrices, four (4) were calorie reduction matrixes and two (2) were diet matrixes. RebM90 served as control. 7-10 internal team members blindly evaluated the samples.

The nature of experiment [3]: Blind bench tasting of lemon-lime flavored carbonated beverages. Conditions: in blends with Reb-M. The protocol: The ingredients were dissolved in filtered water to constitute a syrup (6.5 times concentrated), then the final beverage was made by weighing the appropriate syrup amount and adding carbonated water using a ratio of 1 part syrup+5.5 parts carbonated water. Target carbonation volume in finished beverages was […] of CO2. For samples with high Reb-M content (#1 and #2) syrup water was heated to about 47° C. to allow Reb-M solubility, then cooled down to ambient temperature before adding the remaining ingredients. Final beverages were filled in 300 ml glass bottles then aged for 3 days at 35° C. before they were cooled and served cold (4° C.).
Four experienced panelists bench tasted the beverages blindly. Each panelist was given warm bottled water and unsalted crackers to eat and rinse the palate between samples. A maximum of 3 samples was tasted at each session to avoid fatigue.

The structures appear in SMILES notation.

For `C[C@H](CC[C@@H](O[C@@H]1O[C@H](CO[C@@H]2O[C@H](CO)[C@@H](O)[C@H](O)[C@H]2O)[C@@H](O)[C@H](O)[C@H]1O[C@@H]1O[C@H](CO)[C@@H](O)[C@H](O)[C@H]1O)C(C)(C)O)[C@H]1CC[C@@]2(C)[C@@H]3CC=C4[C@@H](CC[C@H](O[C@@H]5O[C@H](CO)[C@@H](O[C@@H]6O[C@H](CO)[C@@H](O)[C@H](O)[C@H]6O)[C@H](O)[C@H]5O)C4(C)C)[C@]3(C)[C@H](O)C[C@]12C` [Isomogroside V], the “Dosage for ~7 Brix SE” value in experiment [1] was 270 ppm. In addition, the “Comments: less sweet” value in experiment [2] is “less sweet (−1.5 BE), mogroside”.

With `C[C@H](CC[C@@H](O[C@@H]1O[C@H](CO)[C@@H](O)[C@H](O)[C@H]1O[C@@H]1O[C@H](CO)[C@@H](O)[C@H](O)[C@H]1O)C(C)(C)O)[C@H]1CC[C@@]2(C)[C@@H]3CC=C4[C@@H](CC[C@H](O[C@@H]5O[C@H](CO)[C@@H](O)[C@H](O)[C@H]5O)C4(C)C)[C@]3(C)[C@H](O)C[C@]12C` [Mogroside IIIe], the “Dosage for ~7 Brix SE” value in experiment [1] is listed as 350 ppm.

On to `C[C@H](CC[C@@H](O[C@@H]1O[C@H](CO)[C@@H](O)[C@H](O)[C@H]1O[C@@H]1O[C@H](CO)[C@@H](O)[C@H](O)[C@H]1O)C(C)(C)O)[C@H]1CC[C@@]2(C)[C@H]3CC=C4[C@@H](CC[C@H](O[C@@H]5O[C@H](CO[C@@H]6O[C@H](CO)[C@@H](O)[C@H](O)[C@H]6O)[C@@H](O)[C@H](O)[C@H]5O)C4(C)C)[C@]3(C)[C@H](O)C[C@]12C` [Mogroside IV], for which the “Dosage for ~7 Brix SE” value in experiment [1] is given as 435 ppm.

Turning to `C[C@H](CC[C@@H](O[C@@H]1O[C@H](CO[C@@H]2O[C@H](CO)[C@@H](O)[C@H](O)[C@H]2O)[C@@H](O)[C@H](O)[C@H]1O[C@@H]1O[C@H](CO)[C@@H](O)[C@H](O)[C@H]1O)C(C)(C)O)[C@H]1CC[C@@]2(C)[C@@H]3CC=C4[C@@H](CC[C@H](O[C@@H]5O[C@H](CO[C@@H]6O[C@H](CO)[C@@H](O)[C@H](O)[C@H]6O)[C@@H](O)[C@H](O)[C@H]5O)C4(C)C)[C@]3(C)[C@H](O)C[C@]12C` [Mogroside V], the “Brix SE” value in experiment [1] (500 ppm) is listed as “approximately 7 Brix SE”. For the same compound, the “relative sweetness of solutions” value in experiment [1] (500 ppm, citric acid buffer pH 3.2 and phosphoric acid buffer pH 2.6) is on record as “the least sweet”. In experiment [1], the “Dosage for ~7 Brix SE” value is 500 ppm.

For the compound `C=C1C[C@@]23CC[C@H]4[C@@](C)(CCC[C@@]4(C)C(=O)O[C@@H]4O[C@H](CO)[C@@H](O)[C@H](O[C@@H]5O[C@H](CO)[C@@H](O)[C@H](O)[C@H]5O)[C@H]4O[C@@H]4O[C@@H](C)[C@H](O)[C@@H](O)[C@H]4O)[C@@H]2CC[C@]1(O[C@@H]1O[C@H](CO)[C@@H](O)[C@H](O[C@@H]2O[C@H](CO)[C@@H](O)[C@H](O)[C@H]2O)[C@H]1O[C@@H]1O[C@H](CO)[C@@H](O)[C@H](O)[C@H]1O)C3` [Rebaudioside N], in experiment [1], the “Dosage for ~7 Brix SE” value is 360 ppm.

As to `C[C@H](CC[C@@H](O[C@@H]1O[C@H](CO[C@@H]2O[C@H](CO)[C@@H](O)[C@H](O)[C@H]2O)[C@@H](O)[C@H](O)[C@H]1O[C@@H]1O[C@H](CO)[C@@H](O)[C@H](O)[C@H]1O)C(C)(C)O)[C@H]1CC[C@@]2(C)[C@@H]3CC=C4[C@@H](CC[C@H](O[C@@H]5O[C@H](CO)[C@@H](O)[C@H](O)[C@H]5O)C4(C)C)[C@]3(C)[C@H](O)C[C@]12C` [Siamenoside I], in experiment [1], the “Dosage for ~7 Brix SE” value is listed as 350 ppm. In experiment [3], this compound registered a maximum sweetness intensity of 10 Brix equivalent.
